Consider two compounds from patent US4530837A, “Peptide derivatives, their preparation process and their pharmaceutical use” (Commissariat a l'Energie Atomique, priority 1982, dated 1985).

The subject of test [1] is hydrochloric acid secretion stimulated by histamine. Briefly: inhibition of secretion plateau stimulated by histamine in anesthetized perfused-stomach rats. Type of test: in vivo, rat. Conditions: 150 nmol/kg i.v., histamine 13.5 μmol/kg/h. Here is the method: (§1) For the purpose of these tests, use was made of male Wistar rats weighing 300±25 g. The rats were not allowed to take solid food for 18 hours, but were allowed to drink water freely. They were then anesthesized with urethane (1.25 g/kg) by the intramuscular route. The temperature of the rats was maintained at 34° C. by means of lamps, approximately 60 cm away from them. A polyethylene catheter was introduced into the esophagus up to the level of the cardia and a second catheter for collecting the stomach secretion at the duodenum. After washing the stomach, the latter was continuously perfused with a 0.9% sodium chloride solution, at a flow rate of 1 ml/min, using a peristaltic pump connected to the catheter of the esophagus.
(§2) After a period of stabilizing the system lasting approximately 90 minutes after the operation, the compounds which it was wished to study were injected intravenously into the vein of the penis and the gastric secretion was collected by fractions taken every 20 minutes, the interval between these injections being min 90 minutes. The acidity of the sample fractions was dosed by means of a 0.01N sodium solution at the phenolphthalein colour change.
In this case, use is made of the same operating procedure as in the second group of experiments, by stimulating the secretion by histamine. In this case, a higher histamine dose (13.5 μmol/kg/h) is injected.

For test [2], the system named is hydrochloric acid secretion. Description: hydrochloric acid secretion in anesthetized rats with perfused stomach (Ghosh and Schild, modified by Lai): agonist effect. Type of test: in vivo, rat. The settings on record: intravenous injection, male Wistar rats. Here is the method:
as §1, §2

For the compound `CN/C(=N\CCSCc1nc[nH]c1C)NC#N` [cimetidine], in test [1], the “duration of inhibition of the histamine response” value is listed as “approximately 3 h” and the “inhibition of the histamine response (intensity)” value is reported as “approximately 55%”. Moreover, in test [1] (group of 4 rats), the “maximum inhibition percentage (mean ± ESM)” value came to 54.4±2.7%.

As for `CSCC[C@H](NC(=O)[C@H](Cc1c[nH]c2ccccc12)NC(=O)CCNC(=O)OC(C)(C)C)C(=O)N[C@@H](CC(=O)O)C(=O)N[C@@H](Cc1ccccc1)C(N)=O` [pentagastrin, Boc-βAla-Trp-Met-Asp-Phe-NH2], the “dose from which activity on hydrochloric acid secretion is maximum” value in test [2] was not below 20 nmol/kg.
